Test results reported in patent US6331555A, “Treatment of platelet derived growth factor related disorders such as cancers” (priority 1999, dated 2001).
Like-named read-outs stand apart in the source and are kept apart here.

Tests used:
Format in all cases: cell-based
EGFR = molecular target: T1, EGFR (Homo sapiens, UniProt P00533); assay: Receptor tyrosine kinase inhibition, EGFR
T1 construct: expressed in transfected cells; host or cells: NIH3T3 mouse fibroblasts, retroviral vector
Experimental: (§1) For western blotting, cells were plated in 2 mL growth medium into 6-well dishes (500,000 cells per well) and allowed to attach overnight. The medium was replaced with 2 mL MCDB 105 (UCSF Cell Culture Facility) supplemented with 1% FBS. The plates were then incubated overnight at 37° C., ambient CO2. […] After a 7 min incubation at room temperature with ligand, the plates were put on ice and washed three times with 1 mL ice-cold PBS plus 1 mM orthovanadate. Lysis was achieved by pipetting cells in 0.5 mL of buffer containing 50 mM Tris, pH 7.4, 10% glycerol, 1% NP-40, 2 mM EDTA, 1 mM sodium vanadate (Na3 VO4), 10 mM pyrophosphate, 1 mM PMSF, […]. A 300 μL aliquot of each lysate was immediately added to 100 μL 4×Laemmli sample buffer ([…] Tris pH 6.9, 20% glycerol, 7% SDS, 5 mM EDTA, 5% β-mercaptoethanol) containing phosphatase inhibitors, 2 mM Na3 VO4 and 10 mM pyrophosphate. Samples were boiled for 5 min, frozen in dry ice-ethanol, and stored at -80° C. Proteins were resolved by SDS-PAGE (Bio-Rad Miniprotean II) and transferred to nitrocellulose membrane (Schleicher & Schuell) at 120 volts for 1 hr at room temperature in buffer containing 25 mM Tris pH 8.3, 20% methanol, 0.2 M glycine, 0.1% SDS. The integrity of the protein-to-membrane transfer was determined by staining with 1% Ponceau S in 5% acetic acid for 5 min. After destaining in several distilled water rinses, the membrane was soaked overnight in blocking buffer containing 5% milk in Tris-buffered saline, 0.05% Tween 20. Phosphotyresine was detected by incubating the membrane (1 hr at room temperature) with an anti-phosphotyosine antiserum diluted in blocking buffer at 1:3000. For C6 cells, PDGF-β receptor content in the lysates was confirmed in duplicate sample lanes by western blotting using an antibody specific for PDGF-β receptor (UBI). The antibodies were visualized using ECL reagent from Amersham and by exposure to Fuji RX film.
(§2) For ELISA assays, cells were grown to 80-90% confluency in growth medium and seeded in 96-well tissue culture plates in 0.5% serum at 25,000 to 30,000 cells per well. After overnight incubation in 0.5% serum-containingmedium, cells were changed to serum-free medium and treated with test compound for 2 hr in a 5% CO2, 37° C. incubator. Cells were then stimulated with ligand for 5-10 min followed by lysis with HNTG (20 mM Hepes, 150 mM NaCl, 10% glycerol, 5 mM EDTA, 5 mM Na3 VO4 0.2% Triton X-100, and 2 mM NaPyr). Cell lysates (0.5 mg/well in PBS) were transferred to ELISA plates previously coated with receptor-specific antibody and which had been blocked with 5% milk in TBST (50 mM Tris-HCl pH 7.2, 150 mM NaCl and 0.1% Triton X-100) at room temperature for 30 min. Lysates were incubated with shaking for 1 hr at room temperature. The plates were washed with TBST four times and then incubated with polyclonol anti-phosphotyrosine antibody at room temperature for 30 min. Excess anti-phosphotyrosine antibody was removed by rinsing the plate with TBST four times. Goat anti-rabbit IgG antibody was added to the ELISA plate for 30 min at room temperature followed by rinsing with TBST four more times.
(§3) The ability of different compound to inhibit different receptor tyrosine kinases was tested.

PDGFR = PDGFR (Homo sapiens, UniProt P09619); assay: PDGF-stimulated receptor phosphorylation in U1242 cells, ELISA; design: U1242 (PDGF-β receptor); host or cells: U1242 MG glioma cells; details: for IC50: 100 ng/ml PDGF-BB, read-out: ELISA P-TYR U1242 IC50
Outline: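 U1242 MG cells in 0.5% serum were pretreated with compound for 2 h at 37° C, then stimulated 5–10 min with PDGF-BB (100 ng/ml). Lysates captured on anti-PDGF receptor-coated plates; receptor phosphotyrosine detected by anti-phosphotyrosine ELISA with POD/ABTS read-out at 410 nm.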

FLK-1 = molecular target: T2, FLK-1 (Mus musculus, UniProt P35918); assay: Receptor tyrosine kinase inhibition, FLK-1
T2 construct: expressed in transfected cells; host or cells: NIH3T3 mouse fibroblasts, retroviral vector
Experimental: as §1, §2, §3

[1] = W = done in Western assay, read-out: FLK-1 IC50 (W)

T2 sequence (P35918 20-1345): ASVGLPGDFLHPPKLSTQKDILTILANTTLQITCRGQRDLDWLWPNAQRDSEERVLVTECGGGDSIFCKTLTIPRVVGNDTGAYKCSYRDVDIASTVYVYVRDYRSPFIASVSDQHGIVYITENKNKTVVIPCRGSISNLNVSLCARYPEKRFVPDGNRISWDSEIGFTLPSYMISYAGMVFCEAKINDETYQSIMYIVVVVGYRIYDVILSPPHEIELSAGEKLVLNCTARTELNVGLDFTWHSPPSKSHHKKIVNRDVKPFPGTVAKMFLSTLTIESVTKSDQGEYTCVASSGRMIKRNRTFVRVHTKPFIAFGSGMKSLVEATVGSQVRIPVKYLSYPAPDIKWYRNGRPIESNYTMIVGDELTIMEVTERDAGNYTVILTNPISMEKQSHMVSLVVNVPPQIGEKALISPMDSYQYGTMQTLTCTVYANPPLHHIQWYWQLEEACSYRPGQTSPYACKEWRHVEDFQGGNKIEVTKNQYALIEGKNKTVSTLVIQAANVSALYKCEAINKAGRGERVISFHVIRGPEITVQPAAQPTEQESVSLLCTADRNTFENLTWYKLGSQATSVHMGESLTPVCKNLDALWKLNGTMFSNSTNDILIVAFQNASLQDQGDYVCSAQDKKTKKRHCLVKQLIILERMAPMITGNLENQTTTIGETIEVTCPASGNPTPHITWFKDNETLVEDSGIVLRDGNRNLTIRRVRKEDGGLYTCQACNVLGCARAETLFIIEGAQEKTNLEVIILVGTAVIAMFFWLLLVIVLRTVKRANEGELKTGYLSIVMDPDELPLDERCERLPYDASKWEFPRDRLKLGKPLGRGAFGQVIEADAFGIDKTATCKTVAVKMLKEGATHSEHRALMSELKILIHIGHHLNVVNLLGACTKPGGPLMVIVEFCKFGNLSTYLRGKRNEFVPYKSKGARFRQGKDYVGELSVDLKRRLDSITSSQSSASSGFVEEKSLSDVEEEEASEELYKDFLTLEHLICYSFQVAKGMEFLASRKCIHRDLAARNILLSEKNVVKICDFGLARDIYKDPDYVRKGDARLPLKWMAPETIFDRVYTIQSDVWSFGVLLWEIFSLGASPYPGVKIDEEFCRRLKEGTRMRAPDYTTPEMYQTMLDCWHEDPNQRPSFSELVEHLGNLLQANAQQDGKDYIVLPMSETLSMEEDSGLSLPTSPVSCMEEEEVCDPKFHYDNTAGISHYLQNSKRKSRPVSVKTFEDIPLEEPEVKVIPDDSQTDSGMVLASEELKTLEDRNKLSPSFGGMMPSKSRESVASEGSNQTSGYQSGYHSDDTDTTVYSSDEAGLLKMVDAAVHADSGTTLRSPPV
PDGFR, sequence (P09619 33-1106): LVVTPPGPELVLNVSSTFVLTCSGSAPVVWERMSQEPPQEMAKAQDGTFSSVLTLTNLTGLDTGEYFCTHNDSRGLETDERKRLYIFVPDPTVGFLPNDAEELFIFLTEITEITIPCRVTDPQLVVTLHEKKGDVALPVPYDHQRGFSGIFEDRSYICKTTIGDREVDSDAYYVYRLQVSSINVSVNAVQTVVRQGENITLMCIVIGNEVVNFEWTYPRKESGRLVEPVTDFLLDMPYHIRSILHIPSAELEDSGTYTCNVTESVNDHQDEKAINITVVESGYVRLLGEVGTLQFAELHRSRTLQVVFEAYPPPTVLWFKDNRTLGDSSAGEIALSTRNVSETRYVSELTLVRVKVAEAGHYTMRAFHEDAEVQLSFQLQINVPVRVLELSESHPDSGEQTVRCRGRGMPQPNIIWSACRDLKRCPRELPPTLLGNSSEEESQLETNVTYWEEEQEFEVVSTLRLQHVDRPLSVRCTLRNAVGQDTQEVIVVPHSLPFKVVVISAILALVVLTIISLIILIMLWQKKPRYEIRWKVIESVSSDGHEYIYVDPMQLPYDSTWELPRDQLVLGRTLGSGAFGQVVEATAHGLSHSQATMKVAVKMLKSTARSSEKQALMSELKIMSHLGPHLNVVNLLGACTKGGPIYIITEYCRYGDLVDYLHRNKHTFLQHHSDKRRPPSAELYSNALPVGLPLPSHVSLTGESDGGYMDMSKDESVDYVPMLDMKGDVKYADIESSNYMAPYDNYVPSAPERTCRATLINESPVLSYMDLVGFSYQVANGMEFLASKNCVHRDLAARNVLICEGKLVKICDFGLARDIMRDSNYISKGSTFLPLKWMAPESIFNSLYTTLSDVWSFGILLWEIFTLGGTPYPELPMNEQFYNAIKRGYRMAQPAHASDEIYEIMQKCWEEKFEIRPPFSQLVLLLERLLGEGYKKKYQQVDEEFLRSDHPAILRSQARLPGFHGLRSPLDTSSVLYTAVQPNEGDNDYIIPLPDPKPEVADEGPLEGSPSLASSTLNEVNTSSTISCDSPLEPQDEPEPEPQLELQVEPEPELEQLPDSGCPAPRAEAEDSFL
T1 sequence (P00533 25-1210): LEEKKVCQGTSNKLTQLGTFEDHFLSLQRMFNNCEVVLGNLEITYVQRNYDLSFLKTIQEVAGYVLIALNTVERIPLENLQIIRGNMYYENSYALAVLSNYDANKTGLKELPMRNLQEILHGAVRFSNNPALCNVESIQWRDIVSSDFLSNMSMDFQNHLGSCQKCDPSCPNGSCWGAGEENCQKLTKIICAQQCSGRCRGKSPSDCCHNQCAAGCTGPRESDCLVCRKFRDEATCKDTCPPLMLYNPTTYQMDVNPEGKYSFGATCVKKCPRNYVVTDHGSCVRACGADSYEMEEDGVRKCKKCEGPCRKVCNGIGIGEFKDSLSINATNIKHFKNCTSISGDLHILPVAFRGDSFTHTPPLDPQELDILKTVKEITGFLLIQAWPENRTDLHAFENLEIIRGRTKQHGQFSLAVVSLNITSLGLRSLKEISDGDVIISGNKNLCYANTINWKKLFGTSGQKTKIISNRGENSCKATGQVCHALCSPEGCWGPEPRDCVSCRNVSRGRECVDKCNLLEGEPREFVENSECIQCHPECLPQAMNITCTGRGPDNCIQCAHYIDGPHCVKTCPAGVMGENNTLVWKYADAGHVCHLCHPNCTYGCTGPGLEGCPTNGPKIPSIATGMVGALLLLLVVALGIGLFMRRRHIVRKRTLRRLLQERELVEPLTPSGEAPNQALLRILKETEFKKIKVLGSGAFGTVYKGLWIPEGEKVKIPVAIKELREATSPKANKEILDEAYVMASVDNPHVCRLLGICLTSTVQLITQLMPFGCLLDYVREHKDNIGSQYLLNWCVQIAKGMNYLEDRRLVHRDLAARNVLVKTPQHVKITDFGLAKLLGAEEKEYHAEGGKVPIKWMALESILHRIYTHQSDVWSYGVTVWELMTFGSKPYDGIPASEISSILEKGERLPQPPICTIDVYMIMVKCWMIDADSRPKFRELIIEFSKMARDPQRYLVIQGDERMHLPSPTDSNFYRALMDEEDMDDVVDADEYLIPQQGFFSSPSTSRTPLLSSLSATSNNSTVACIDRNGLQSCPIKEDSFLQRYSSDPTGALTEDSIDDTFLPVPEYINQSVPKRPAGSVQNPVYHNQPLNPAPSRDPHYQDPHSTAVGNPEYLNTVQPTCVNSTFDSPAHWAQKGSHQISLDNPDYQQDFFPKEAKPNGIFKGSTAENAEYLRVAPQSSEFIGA

Structure (SMILES) | EGF receptor phosphorylation (EGFR) | IC50 (PDGFR) [µM] | IC50 (FLK-1; read-out: FLK-1 IC50) [µM] | IC50 (EGFR; read-out: EGFR ID50) [µM] | inhibition of PDGF-stimulated receptor phosphorylation (PDGFR) | IC50 (FLK-1; [1]) [µM] | IC50 (EGFR; W = done in Western assay, read-out: EGFR ID50 (W)) [µM]
Cc1oncc1C(=O)Nc1ccc(C(F)(F)F)cc1 [Compound A10, 5-methylisoxazole-4 carboxylic acid-(4-trifluromethyl)-anilide] | little if any effect on EGF-receptor or HER2 phosphorylation | 65 |  |  |  |  | 
N#CC(=Cc1c[nH]c2ccccc12)C(N)=S [Compound D11] |  | 8 | > 50 |  |  |  | 
N#CC(=Cc1c[nH]c2ccccc12)c1[nH]nc(N)c1C#N [Compound D14] | do not effect EGF or HER2 phosphorylation | 20 | > 50 | > 100 |  |  | 
CN(C)CCCn1cc(C=C(C#N)c2[nH]nc(N)c2C#N)c2ccccc21 [Compound D15] |  | 20 | > 50 |  |  |  | 
O=c1c2ccccc2nc(C=Cc2ccc(O)c(O)c2)n1CCO [Compound F10] |  | 45 | > 50 |  |  |  | 
Cc1cc2ncc(-c3ccccc3)nc2cc1C [Compound G13] | do not effect EGF or HER2 phosphorylation |  |  |  | had the lowest IC50 | > 10 | 
COc1cc2ncc(-c3ccccc3)nc2cc1OC [Compound G14] | do not effect EGF or HER2 phosphorylation | 0.8 |  |  | had the lowest IC50 | > 30 | 
Cc1cc2nc(-c3ccccc3)c(=O)[nH]c2cc1C [Compound G18] |  | 10 |  |  |  |  | 500
c1ccc(-c2cnc3cc4ccccc4cc3n2)cc1 [Compound G22] |  | 1 |  | > 100 |  |  | 
